# From the supplement of paper PMC10307832
# Experiments:
# Experiment in all cases: relative viability (nuclei count vs DMSO), 5 days (fraction); higher = more cells survive
# AZ3146 + Dasatinib = compound: CN1CCC(CC1)OC2=CC(=C(C=C2)NC3=NC=C4C(=N3)N(C(=O)N4C)C5CCCC5)OC [AZ3146] + Cc1nc(Nc2ncc(C(=O)Nc3c(C)cccc3Cl)s2)cc(N2CCN(CCO)CC2)n1 [Dasatinib] (partner 0.075 µM)
# Procedure, shortened: (§1)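 Lung cancer cell lines in 1536-well plates were dosed by pin tool the day after seeding, either with one drug alone or with a fixed anchor-drug dose plus five library-drug doses (not always all listed) in √10 steps. After 5 days, cells were fixed and their nuclei stained in one step (final 0.05% Triton X-100, 1% formaldehyde, 1 ug/ml Hoechst), then counted on 4× images. Relative viability is the nuclei count in treated wells divided by that in vehicle wells. Values are medians of duplicate plates.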
# AZ3146 + Luminespib = compound: CN1CCC(CC1)OC2=CC(=C(C=C2)NC3=NC=C4C(=N3)N(C(=O)N4C)C5CCCC5)OC [AZ3146] + CCNC(=O)c1noc(-c2cc(C(C)C)c(O)cc2O)c1-c1ccc(CN2CCOCC2)cc1 [Luminespib] (partner 0.01 µM)
# Procedure, shortened: as §1
# GSK-J4 + Bortezomib = compound: CCOC(=O)CCNc1cc(N2CCc3ccccc3CC2)nc(-c2ccccn2)n1 [GSK-J4] + CC(C)C[C@H](NC(=O)[C@H](Cc1ccccc1)NC(=O)c1cnccn1)B(O)O [Bortezomib] (partner 0.002 µM)
# Procedure, shortened: as §1
# GSK-J4 + Decitabine = compound: CCOC(=O)CCNc1cc(N2CCc3ccccc3CC2)nc(-c2ccccn2)n1 [GSK-J4] + Nc1ncn([C@H]2C[C@H](O)[C@@H](CO)O2)c(=O)n1 [Decitabine] (partner 2 µM)
# Procedure, shortened: as §1
Cell Line,relative viability (AZ3146 + Dasatinib; first compound 0.08 µM),relative viability (AZ3146 + Dasatinib; first compound 0.253 µM),relative viability (AZ3146 + Dasatinib; first compound 0.8 µM),relative viability (AZ3146 + Dasatinib; first compound 2.53 µM),relative viability (AZ3146 + Dasatinib; first compound 8 µM),relative viability (AZ3146 + Luminespib; first compound 0.08 µM),relative viability (AZ3146 + Luminespib; first compound 0.253 µM),relative viability (AZ3146 + Luminespib; first compound 0.8 µM),relative viability (AZ3146 + Luminespib; first compound 2.53 µM),relative viability (AZ3146 + Luminespib; first compound 8 µM),relative viability (GSK-J4 + Bortezomib; first compound 0.5 µM),relative viability (GSK-J4 + Bortezomib; first compound 1.581 µM),relative viability (GSK-J4 + Bortezomib; first compound 5 µM),relative viability (GSK-J4 + Bortezomib; first compound 15.81 µM),relative viability (GSK-J4 + Bortezomib; first compound 50 µM),relative viability (GSK-J4 + Decitabine; first compound 0.5 µM),relative viability (GSK-J4 + Decitabine; first compound 1.581 µM),relative viability (GSK-J4 + Decitabine; first compound 5 µM),relative viability (GSK-J4 + Decitabine; first compound 15.81 µM),relative viability (GSK-J4 + Decitabine; first compound 50 µM)
LOU-NH91,0.581,0.485,0.632,0.602,0.566,0.351,0.405,0.374,0.377,0.385,0.525,0.497,0.426,0.467,0.621,0.789,0.798,0.703,0.774,0.805
LU99A,0.645,0.528,0.464,0.56,0.606,0.247,0.236,0.327,0.262,0.477,1.07,0.777,0.777,1.21,0.632,0.791,0.725,–,0.846,0.554
LXF-289,0.276,0.241,0.172,0.227,0.18,0.643,0.691,0.705,0.772,0.787,0.952,0.866,1,0.994,1.02,0.388,0.376,0.403,0.394,0.406
NCI-H23,0.894,0.767,0.612,0.756,0.97,0.218,0.21,0.241,0.223,0.226,0.987,–,0.791,1.03,0.969,0.261,0.271,0.303,0.279,0.282
NCI-H322M,0.236,0.248,0.24,0.251,0.285,0.88,0.847,0.715,0.924,0.787,1.3,1.03,1.67,1.11,1.02,0.687,0.687,0.81,0.379,0.671
NCI-H441,0.636,0.68,0.922,0.497,0.536,0.274,0.465,0.353,0.38,0.473,0.749,0.497,0.401,0.538,0.348,0.203,0.279,0.205,0.217,0.271
NCI-H460,0.463,0.485,0.484,0.463,0.476,0.0349,0.0347,0.0408,0.0305,0.0293,1.02,0.888,1,1.04,0.985,0.444,–,0.411,0.429,0.47
NCI-H520,0.166,0.171,0.197,0.592,0.19,0.243,0.214,0.223,0.255,0.248,0.553,0.316,0.299,0.509,0.556,0.51,0.336,0.541,0.502,0.446
NCI-H596,0.56,0.582,0.581,0.636,0.538,1.01,0.995,0.831,1.03,0.837,0.999,0.945,0.99,0.976,1,0.923,1.03,0.906,0.773,1.02
NCI-H647,0.214,0.186,0.178,0.216,0.138,0.186,0.178,0.244,0.149,0.269,0.912,0.862,0.652,1.12,0.982,0.376,0.393,0.374,0.337,0.496
NCI-H650,0.351,0.428,0.435,0.482,0.491,0.734,0.706,0.764,0.904,0.854,0.76,0.525,0.495,0.663,0.663,0.289,0.326,–,0.283,0.334
NCI-H661,0.867,0.859,0.927,0.765,0.459,0.928,0.968,0.96,0.896,0.688,0.896,0.852,0.791,0.589,0.583,0.548,0.5,0.485,0.497,0.441
NCI-H727,0.418,0.378,0.324,0.362,0.384,0.465,0.796,0.458,0.34,0.302,0.934,–,1.19,0.954,0.35,0.856,0.753,0.904,0.87,0.611
NCI-H838,0.408,0.303,0.269,0.331,0.269,0.31,0.284,0.281,0.273,0.264,0.978,0.483,–,0.769,0.792,0.459,0.363,0.407,0.406,0.316
NCI-H1355,0.654,0.644,0.767,0.68,0.726,0.744,0.721,0.724,0.767,0.766,1.23,1.04,1.11,1.16,1.16,0.354,0.364,0.342,0.325,0.335
NCI-H1437,0.327,0.373,0.447,0.368,0.51,1.12,1.15,1.11,1.15,1.07,0.537,0.328,0.435,0.504,0.209,0.574,0.363,0.564,0.552,0.358

Cell Line,relative viability (AZ3146 + Dasatinib; first compound 0.08 µM),relative viability (AZ3146 + Dasatinib; first compound 0.253 µM),relative viability (AZ3146 + Dasatinib; first compound 0.8 µM),relative viability (AZ3146 + Dasatinib; first compound 2.53 µM),relative viability (AZ3146 + Dasatinib; first compound 8 µM),relative viability (AZ3146 + Luminespib; first compound 0.08 µM),relative viability (AZ3146 + Luminespib; first compound 0.253 µM),relative viability (AZ3146 + Luminespib; first compound 0.8 µM),relative viability (AZ3146 + Luminespib; first compound 2.53 µM),relative viability (AZ3146 + Luminespib; first compound 8 µM),relative viability (GSK-J4 + Bortezomib; first compound 0.5 µM),relative viability (GSK-J4 + Bortezomib; first compound 1.581 µM),relative viability (GSK-J4 + Bortezomib; first compound 5 µM),relative viability (GSK-J4 + Bortezomib; first compound 15.81 µM),relative viability (GSK-J4 + Bortezomib; first compound 50 µM),relative viability (GSK-J4 + Decitabine; first compound 0.5 µM),relative viability (GSK-J4 + Decitabine; first compound 1.581 µM),relative viability (GSK-J4 + Decitabine; first compound 5 µM),relative viability (GSK-J4 + Decitabine; first compound 15.81 µM),relative viability (GSK-J4 + Decitabine; first compound 50 µM)
NCI-H1650,0.318,0.315,0.37,0.265,0.225,0.214,0.201,0.185,0.189,0.186,0.17,0.164,0.219,0.174,0.232,0.522,0.343,0.423,0.416,0.294
NCI-H1651,0.335,0.387,0.422,0.35,0.251,0.966,0.881,0.984,0.761,0.779,0.893,0.842,0.893,0.901,0.884,0.599,0.622,0.599,0.537,0.508
NCI-H1666,0.799,0.818,0.74,0.764,0.596,1.08,1.04,1,1.04,0.763,0.776,–,0.84,0.66,0.495,0.747,0.726,0.84,0.666,0.674
NCI-H1734,0.436,0.461,0.493,0.484,0.394,0.181,0.198,0.689,0.198,0.2,0.795,0.878,0.738,0.725,0.783,0.542,0.447,0.507,0.492,0.376
NCI-H1755,0.492,0.425,0.424,0.441,0.408,0.415,0.365,0.537,0.966,0.696,0.937,0.813,0.649,0.886,0.905,0.727,0.569,0.641,0.61,0.709
NCI-H1792,0.737,0.855,–,0.808,0.822,0.345,0.478,0.571,0.435,0.431,0.963,0.724,0.915,0.909,1.02,0.559,0.472,0.589,0.428,0.43
NCI-H1915,0.262,0.344,0.337,0.301,0.318,0.717,0.888,0.913,0.875,0.919,0.883,0.924,0.661,0.931,1.01,0.253,0.235,–,0.239,0.247
NCI-H1975,0.358,0.338,0.346,0.321,0.198,0.215,0.173,0.162,0.204,0.257,0.383,0.354,–,0.368,0.413,0.401,0.352,0.323,0.376,0.394
NCI-H1993,0.537,0.563,0.677,0.643,0.475,0.86,0.92,0.911,1.06,1.02,1.18,1.24,1.19,0.878,0.812,0.643,0.554,0.388,0.6,0.507
NCI-H2009,0.363,0.315,0.284,0.241,0.184,0.996,1.06,0.973,1.06,0.999,0.837,0.329,0.58,0.962,0.398,0.348,0.358,0.313,0.319,0.297
NCI-H2023,0.57,0.584,0.472,0.498,0.147,0.657,0.774,0.78,0.593,0.153,0.912,0.71,0.878,0.799,0.801,0.212,0.195,0.209,0.174,0.195
NCI-H2085,0.256,0.231,0.266,0.257,0.208,0.417,0.416,0.394,0.427,0.608,0.949,0.927,0.857,1.09,1,0.511,0.501,0.512,0.548,0.491
NCI-H2087,0.802,1.09,0.902,0.801,0.702,0.232,0.182,0.217,0.209,0.199,0.789,0.763,–,0.701,0.72,0.312,0.218,0.353,0.224,0.249
NCI-H2126,0.575,0.629,0.56,0.628,0.523,0.882,0.942,0.919,0.919,0.767,1.02,0.617,1.09,1.05,0.998,0.625,0.573,0.59,0.53,0.539
NCI-H2347,0.303,0.248,0.294,0.316,0.379,0.375,0.298,0.551,0.53,0.644,0.827,0.818,0.827,0.958,0.818,0.584,0.606,0.57,0.58,0.503
NCI-H2405,0.166,0.187,0.191,0.212,0.185,0.923,0.704,0.967,0.756,0.914,0.992,0.724,–,0.968,1.04,0.719,0.781,–,0.689,0.757
